Assay results from US20230414735A1, “NEOANTIGENS AND METHODS OF THEIR USE” (priority 2016, published 2023).
Where two headings read alike, the source gives them in different places. Where no end group is shown, it is not given here.

Assays:
HLA class I molecule = test: HLA class I peptide binding affinity assay (inhibition of 125I-radiolabeled probe peptide binding to purified HLA); design: species or system human; settings: read-out: Observed Affinity (IC50, (nM))
Method: Epstein-Barr virus (EBV)-transformed homozygous cell lines, fibroblasts, CIR, or 721.22 transfectants are used as sources of HLA class I molecules. […] HLA molecules are purified from lysates by affinity chromatography. The lysates are passed over a column of Sepharose CL-4B beads coupled to an appropriate antibody. […] A 1/25 volume of 2.0 M Tris, pH 6.8, is added to the eluate to reduce the pH to […]. Eluates are then concentrated by centrifugation in Centriprep 30 concentrators (Amicon, Beverly, MA). Protein content is evaluated by a BCA protein assay (Pierce Chemical Co., Rockford, IL) and confirmed by SDS-PAGE.
Following incubation, MHC-peptide complexes are separated from free peptide by gel filtration on 7.8 mm×15 cm TSK200 columns (TosoHaas 16215, Montgomeryville, PA). Because the large size of the radiolabeled peptide used for the DRB1*1501 (DR2w2(31) assay makes separation of bound from unbound peaks more difficult under these conditions, all DRB1*1501 (DR2w2(31) assays were performed using a 7.8 mm×30 cm TSK2000 column eluted at 0.6 mLs/min. The eluate from the TSK columns is passed through a Beckman 170 radioisotope detector, and radioactivity is plotted and integrated using a Hewlett-Packard 3396A integrator, and the fraction of peptide bound is determined.
Radiolabeled peptides are iodinated using the chloramine-T method. […] All subsequent inhibition and direct binding assays are performed using these HLA concentrations.
Since under these conditions [label]<[HLA] and IC50≥[HLA], the measured IC50 values are reasonable approximations of the true KD values. […] For database purposes, and inter-experiment comparisons, relative binding values are compiled. These values can subsequently be converted back into IC50 nM values by dividing the IC50 nM of the positive controls for inhibition by the relative binding of the peptide of interest.
HLA binding assays were used to evaluate either the affinity of interaction of a given epitope with a selected HLA molecule or the stability.
The measurements are plotted against the predicted affinity in FIG. 1.

HLA Class I molecules = test: HLA class I binding stability assay (pMHC-I complex dissociation, 125I-labeled β2m, scintillation counts); design: species or system human
[1] = allele A02.01, pMHC-I dissociation at 37° C.

| Compound | IC50 (HLA class I molecule; allele A02.01) | Stability (T1/2 (h)) (HLA Class I molecules; allele A02.01, 37° C.) | Stability (T1/2 (h)) (HLA Class I molecules; [1]) | further results |
| --- | --- | --- | --- | --- |
| CC(C)C[C@H](NC(=O)[C@H](C)N)C(=O)N[C@@H](CC(N)=O)C(=O)N[C@@H](CO)C(=O)N[C@@H](CCC(=O)O)C(=O)N[C@@H](C)C(=O)N[C@@H](CC(C)C)C(=O)N[C@@H](CO)C(=O)N[C@H](C(=O)N[C@H](C(=O)O)C(C)C)C(C)C | 15 nM | 2.9 h | – | – |
| CC(C)C[C@H](NC(=O)CN)C(=O)N[C@H](C(=O)N[C@@H](CC(=O)O)C(=O)N[C@@H](CCC(=O)O)C(=O)N[C@@H](CCC(N)=O)C(=O)N[C@@H](CCC(N)=O)C(=O)N[C@@H](CCC(=O)O)C(=O)N[C@H](C(=O)O)C(C)C)C(C)C | 44 nM | 7.4 h | – | – |
| CC[C@H](C)[C@H](NC(=O)[C@@H](N)CC(C)C)C(=O)N[C@@H](CCSC)C(=O)N[C@@H](CCC(N)=O)C(=O)N[C@@H](CC(C)C)C(=O)N[C@@H](CCSC)C(=O)N1CCC[C@H]1C(=O)N[C@@H](Cc1ccccc1)C(=O)NCC(=O)N[C@@H](CS)C(=O)O | 177 nM | – | 0.4 h | – |
| CC(C)[C@H](N)C(=O)N[C@H](C(=O)N1CCC[C@H]1C(=O)N[C@@H](CS)C(=O)N[C@@H](CCC(=O)O)C(=O)N1CCC[C@H]1C(=O)N1CCC[C@H]1C(=O)N[C@@H](CCC(=O)O)C(=O)N[C@H](C(=O)O)C(C)C)C(C)C | 187 nM | 0.9 h | – | – |
| CC(C)C[C@H](NC(=O)[C@H](CC(C)C)NC(=O)[C@H](CC(C)C)NC(=O)CNC(=O)[C@H](Cc1ccc(O)cc1)NC(=O)[C@H](CC(C)C)NC(=O)[C@@H]1CCCN1C(=O)[C@@H](NC(=O)[C@@H](N)C(C)C)C(C)C)C(=O)O | 1040 nM | – | 0.6 h | – |
| CC(C)C[C@H](NC(=O)[C@@H](NC(=O)[C@H](CC(=O)O)NC(=O)[C@H](CC(C)C)NC(=O)[C@@H](NC(=O)[C@@H](N)Cc1ccc(O)cc1)[C@@H](C)O)C(C)C)C(=O)N[C@@H](CCC(=O)O)C(=O)N[C@@H](CCCNC(=N)N)C(=O)N[C@@H](CS)C(=O)O | 1760 nM | 6.6 h | – | – |
| ALSASNSCF | 728 nM | 0.3 h | – | – |
| ALSASNSCFI | 226 nM | 0.8 h | – | – |
| ALSEHCPTT | 79 nM | 27.3 h | – | – |
| CLADVLLSV | 219 nM | – | 24 h | – |
| FSGEYIPTV | 3 nM | 6.8 h | – | – |
| GLLAFWDSQV | 10 nM | 14.2 h | – | – |
| GLLLEMLDA | 558 nM | – | 0.4 h | – |
| GVYTFLPST | 779 nM | – | 1.3 h | – |
| GVYTFLPSTL | 1200 nM | – | 0.4 h | – |
| ILMELMAGG | 223 nM | – | 0.5 h | – |
| IMQLMPFGC | 1610 nM | – | 0.4 h | – |

| Compound | IC50 (HLA class I molecule; allele A02.01) | Stability (T1/2 (h)) (HLA Class I molecules; allele A02.01, 37° C.) | Stability (T1/2 (h)) (HLA Class I molecules; [1]) | further results |
| --- | --- | --- | --- | --- |
| KGPELFPLI | 101 nM | – | 0.3 h | IC50 (HLA class I molecule; allele A24.02): 14 nM; Stability (T1/2 (h)) (HLA Class I molecules; allele A24.02, pMHC-I dissociation at 37° C.): 1.7 h |
| KLFSCLSFL | 6 nM | – | 14.3 h | Stability (T1/2 (h)) (HLA Class I molecules; allele A03.01, pMHC-I dissociation at 37° C.): 0.8 h |
| KLGGGQHGEV | 387 nM | – | 0.4 h | – |
| LLAFWDSQV | 68 nM | 12.8 h | – | – |
| LLQEFDVQEA | 45 nM | 2.5 h | – | – |
| LMELMAGGDL | 311 nM | – | 8.9 h | – |
| LQMDFLVHPA | 68 nM | – | 1.5 h | – |
| LVVVGACGV | 1210 nM | 0.6 h | – | – |
| MNIANLLGA | 128 nM | 0.3 h | – | – |
| MNWRPILTII | 1030 nM | 0.4 h | – | – |
| PLCDLLLEM | 602 nM | – | 0.8 h | – |
| PLCDLLLEML | 2010 nM | – | 0.9 h | – |
| PLNDLLLEM | 151 nM | – | 4.2 h | – |
| PLSDLLLEM | 404 nM | – | 2.7 h | – |
| PLYGLLLEM | 640 nM | – | 0.7 h | – |
| RVAKIADFGM | 125 nM | – | 0.5 h | Stability (T1/2 (h)) (HLA Class I molecules; allele B07.02, pMHC-I dissociation at 37° C.): 0.2 h |
